We go through 37 compounds from ChEMBL document CHEMBL4342430, “An Agonist Radioligand for the Proinflammatory Lipid-Activated G Protein-Coupled Receptor GPR84 Providing Structural Insights” (J Med Chem, 2020).

Assay [1] has as its target T1, G-protein coupled receptor 84 (Homo sapiens, UniProt Q9NQS5). Kind of assay: Agonist activity at recombinant human GPR84 expressed in CHO cell membranes co-expressing beta-arrestin2 assessed as beta-arrestin 2 recruitment measured after 90 mins by beta-galactosidase based PathHunter assay.
Assay [2] concerns the target T1, G-protein coupled receptor 84. Kind of assay: Displacement of [3H]PSB-1584 from recombinant human GPR84 expressed in CHO cell membranes co-expressing beta-arrestin2 measured after 6 hrs by scintillation counting method.
Assay [3] has the same target. As to the kind of experiment: Positive allosteric modulation of recombinant human GPR84 expressed in CHO cell membranes co-expressing beta-arrestin2 assessed as increase in [3H]PSB-1584 binding measured after 6 hrs by scintillation counting method relative to control.
The target is the same in assay [4]. As to the kind of experiment: Positive allosteric modulation of recombinant human GPR84 expressed in CHO cell membranes co-expressing beta-arrestin2 assessed as increase in [3H]PSB-1584 binding measured after 6 hrs by scintillation counting method.
Assay [5] shares this target. As to the kind of experiment: Agonist activity at recombinant human GPR84 expressed in CHO cell membranes co-expressing beta-arrestin2 assessed as inhibition of forskolin-stimulated [3H]cAMP accumulation preincubated for 5 mins followed by forskolin stimulation and measured after 15 mins by radioactive assay. It is filed as functional, cell-based.
Assay [6] has the same target. Kind of assay: Displacement of [3H]PSB-1584 from recombinant human GPR84 expressed in CHO cell membranes co-expressing beta-arrestin2 at 100 uM measured after 6 hrs by scintillation counting method relative to control.
Assay [7] shares this target. As to the kind of experiment: Selectivity ratio of EC50 for agonist activity at recombinant human GPR84 expressed in CHO cell membranes co-expressing beta-arrestin2 assessed as inhibition of forskolin-stimulated [3H]cAMP accumulation to Ki for displacement of [3H]PSB-1584 from recombinant human GPR84 expressed in CHO cell membranes co-expressing beta-arrestin2. Format: functional.

For assay [8], the species on record is Rattus norvegicus. As to the kind of experiment: Displacement of [3H]PSB-1584 from GPR84 in rat brain striatum membranes measured after 6 hrs by scintillation counting method. It is filed as cell membranes.
Assay [9] is filed under the species Rattus norvegicus. As to the kind of experiment: Displacement of [3H]PSB-1584 from GPR84 in rat brain cortex membranes measured after 6 hrs by scintillation counting method. It is filed as cell membranes.
For assay [10], the species on record is Rattus norvegicus. As to the kind of experiment: Displacement of [3H]PSB-1584 from GPR84 in rat liver membranes measured after 6 hrs by scintillation counting method. Format: cell membranes.
Assay [11] deals with G-protein coupled receptor 84 (Mus musculus) (UniProt Q8CIM5). As to the kind of experiment: Displacement of [3H]PSB-1584 from GPR84 in mouse liver membranes measured after 6 hrs by scintillation counting method. It is filed as cell membranes.
G-protein coupled receptor 84 (Mus musculus), sequence (Q8CIM5 whole entry): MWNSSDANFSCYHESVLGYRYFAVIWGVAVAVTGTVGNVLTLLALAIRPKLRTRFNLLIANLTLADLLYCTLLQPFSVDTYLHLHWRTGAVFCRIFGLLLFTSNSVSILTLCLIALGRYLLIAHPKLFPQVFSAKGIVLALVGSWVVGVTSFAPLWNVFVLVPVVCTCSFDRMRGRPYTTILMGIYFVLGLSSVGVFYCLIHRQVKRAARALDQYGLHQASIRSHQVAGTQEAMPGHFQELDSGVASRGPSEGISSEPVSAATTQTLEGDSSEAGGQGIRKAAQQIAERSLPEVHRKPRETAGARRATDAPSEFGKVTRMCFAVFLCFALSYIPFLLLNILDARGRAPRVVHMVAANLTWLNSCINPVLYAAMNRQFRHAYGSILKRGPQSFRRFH

pEC50, pKi: −log10 of the molar value. Activity calls are given as the source filed them. The calls are words filed in the database; no cut-off is given here. Some results are limits rather than exact numbers.

T1 sequence (Q9NQS5 whole entry): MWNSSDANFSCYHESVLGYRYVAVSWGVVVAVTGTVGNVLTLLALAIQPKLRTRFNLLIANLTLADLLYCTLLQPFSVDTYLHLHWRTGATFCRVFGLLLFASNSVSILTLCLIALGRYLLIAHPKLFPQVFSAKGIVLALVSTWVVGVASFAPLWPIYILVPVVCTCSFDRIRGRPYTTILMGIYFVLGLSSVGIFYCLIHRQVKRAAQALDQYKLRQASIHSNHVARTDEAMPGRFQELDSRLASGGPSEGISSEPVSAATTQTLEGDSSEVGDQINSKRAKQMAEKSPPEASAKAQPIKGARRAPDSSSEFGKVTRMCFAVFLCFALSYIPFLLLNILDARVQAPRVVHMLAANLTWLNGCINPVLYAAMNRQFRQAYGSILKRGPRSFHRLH

Turning to `CCCCCCCCCCCC(=O)O` [DODECANOATE], in assay [1], the pEC50 was 5.46. Further, in assay [2], the pKi was 5.66.
On to `Clc1cccc2[nH]cc(Cc3c[nH]c4cccc(Cl)c34)c12`, for which the %max in assay [3] was found to be 94%. Besides, the negative logarithm of the EC50 (pEC50) in assay [4] was 6.76.
With `CCCCCCC(O)C(=O)O` (racemic), the pEC50 in assay [1] and in [5] was under 4.00 throughout. Further, the inhibition in assay [6] was determined as 50%. Further, the pKi in assay [2] was 4.00.
Regarding `Brc1ccc2[nH]cc(Cc3c[nH]c4ccc(Br)cc34)c2c1`, the %max in [3] worked out at 69%. In addition, the pEC50 in [4] was 7.23. For the same compound, the Selectivity ratio in assay [7] amounted to 58.
Consider `COc1ccc2[nH]cc(Cc3c[nH]c4ccc(OC)cc34)c2c1`, for which, in [3], the %max is 46%. The pEC50 in [4] was 6.99.
On to `CCCCCCCCCC(O)CC(=O)O` (racemic), for which, in [1], the pEC50 was 5.49. Also, the negative logarithm of the Ki (pKi) in assay [2] was 6.96.
For `CCCCCCCCNC(=O)c1cc(=O)[nH]c(=O)[nH]1`, in [6], the inhibition was 12%. In addition, the negative-log Ki (pKi) in assay [2] is under 5.00.
As for `Fc1ccc2[nH]cc(Cc3c[nH]c4ccccc34)c2c1`, the %max in [3] amounted to 55%.
Regarding `Fc1cc2[nH]cc(Cc3c[nH]c4cc(F)c(F)cc34)c2cc1F`, the %max in [3] stood at 55%. Moreover, the pEC50 in [4] was 7.28.
As for `Fc1cc(F)c2[nH]cc(Cc3c[nH]c4c(F)cc(F)cc34)c2c1`, in assay [3], the %max stood at 87%.
As to `c1ccc2c(Cc3c[nH]c4ccccc34)c[nH]c2c1`, the inhibition result in assay [2] is “inactive”. Further, the %max in assay [3] was under 100%. Also, in assay [4], the Activity entry was “Dose-dependent effect”.
Turning to `CCCCCCCCCNC(=O)c1cc(=O)[nH]c(=O)[nH]1`, in assay [6], the inhibition was 26%. Besides, the negative logarithm of the Ki (pKi) in [2] was under 5.00.
On to `CCCCCCCCCCCC(O)CC(=O)O` (racemic), for which the results for the negative logarithm of the EC50 (pEC50) in assay [1] and in [5] were 6.36 and 5.80, respectively. Moreover, the pKi in assay [2] was 6.29.
For `CCCCCCCC(O)CC(=O)O` (racemic) the same measures were 5.39, 4.50 and 5.48.
For `Fc1cccc2[nH]cc(Cc3c[nH]c4cccc(F)c34)c12`, the %max in assay [3] is 56%. Also, the negative logarithm of the EC50 (pEC50) in assay [4] was 5.82.
For `Fc1ccc2[nH]cc(Cc3c[nH]c4ccc(F)c(F)c34)c2c1F` the same measures were 67% and 7.08.
Consider `CCCCCCSc1nc(O)cc(C(=O)OC)n1`, for which the inhibition in assay [6] amounted to 9%. The pKi in assay [2] was under 5.00.
For `O=c1cc(NCCc2ccc(Br)cc2)[nH]c(=O)[nH]1`, the inhibition result in assay [8], in [9], in assay [10] and in assay [11] was “Active” throughout.
For `Fc1ccc2[nH]cc(Cc3c[nH]c4ccc(F)cc34)c2c1`, the %max in assay [3] worked out at 125%. In addition, the pEC50 in assay [4] was 6.70.
On to `Clc1ccc2[nH]cc(Cc3c[nH]c4ccc(Cl)cc34)c2c1`, for which the %max in assay [3] was 90%. In addition, the pEC50 in [4] is 6.60. For the same compound, in assay [7], the Selectivity ratio is 20.
Turning to `CCCCCCCCCCC[C@@H](O)CC(=O)O`, the negative logarithm of the EC50 (pEC50) in assay [1] is 6.34; in assay [5], 5.76. Also, the negative-log Ki (pKi) in assay [2] is 6.33.
For `CCCCCCCC(=O)O` [OCTANOIC ACID] the same measures were under 4.00, under 4.00 and 4.71.
Taken in the same sequence, the figures for `CCCCCCCCCCCCC(=O)O` [TRIDECANOATE] were 5.77, 5.02 and 5.71.
On to `CCCCOC(=O)c1cc(O)nc(O)n1`, for which, in [6], the inhibition is -3%. Further, the pKi in [2] was under 5.00.
For the compound `COc1ccc2[nH]cc(Cc3c[nH]c4ccccc34)c2c1`, the %max in assay [3] is 53%. Further, the pEC50 in assay [4] is 6.31.
As for `O=C(c1c[nH]c2ccccc12)c1c[nH]c2ccccc12`, the %max in [3] was 59%. Further, in assay [4], the pEC50 is 5.71.
Regarding `Fc1ccc2c(Cc3c[nH]c4cc(F)ccc34)c[nH]c2c1`, the %max in assay [3] was found to be 57%. Further, the pEC50 in assay [4] was 6.52.
In the case of `CCCCCCSc1nc(O)cc(CCC)n1`, in [6], the inhibition came to 51%. Moreover, the pKi in [2] is at most 4.00.
With `CCCCCCCCCCCCC(O)C(=O)O` (racemic), the values for the pEC50 in assay [1] and in assay [5] were 5.36 and 5.41, respectively. The negative-log Ki (pKi) in [2] is 6.50.
`O=c1cc(NCCc2cccs2)[nH]c(=O)[nH]1`: the negative-log Ki (pKi) in assay [2] is 7.31.
On to `CCCCCCCNc1cc(=O)[nH]c(=O)[nH]1`, for which the pKi in assay [2] was 9.06.
In the case of `O=C(O)CCCCCCCCCCCO`, the pEC50 in assay [1] and in assay [5] was under 4.00 throughout. In addition, the inhibition in assay [6] came out at 5%. The negative-log Ki (pKi) in [2] is under 5.00.
In the case of `Fc1cc2c(Cc3c[nH]c4cc(Cl)c(F)cc34)c[nH]c2cc1Cl`, the %max in [3] amounted to 36%. Also, in assay [4], the negative-log EC50 (pEC50) was 6.89. For the same compound, the Selectivity ratio in assay [7] is 84.
For `Oc1cc(NCCc2ccccc2)nc(O)n1`, in assay [2], the negative logarithm of the Ki (pKi) was 7.97.
On to `CCCCCCCCCCNc1cc(O)nc(O)n1`, for which the pKi in [2] is 9.14.
As for `CC(C)(C)c1ccc(CCNc2cc(=O)[nH]c(=O)[nH]2)cc1`, the negative logarithm of the Ki (pKi) in [2] is 8.90.
For `Fc1cccc2c(Cc3c[nH]c4c(F)cccc34)c[nH]c12`, in assay [3], the %max came out at 153%. In addition, the negative-log EC50 (pEC50) in assay [4] is 7.21.
